Test results from BigSolDB 2.1.

CO/N=C(\C(=O)Sc1nc2ccccc2s1)c1csc(N)n1
Conditions | solubility (mole fraction)
in ethanol, 277.67 K | 0.000203
in ethanol, 283.11 K | 0.000248
in ethanol, 288.17 K | 0.000325
in ethanol, 293.09 K | 0.000399
in ethanol, 298.17 K | 0.000517
in ethanol, 303.09 K | 0.000688
in isobutanol, 277.67 K | 0.000148
in isobutanol, 283.07 K | 0.000171
in isobutanol, 287.99 K | 0.000206
in isobutanol, 292.79 K | 0.000268
in isobutanol, 297.77 K | 0.000345
in isobutanol, 304.27 K | 0.000531
in isopentanol, 277.65 K | 0.000183
in isopentanol, 283.07 K | 0.000215
in isopentanol, 288.37 K | 0.000286
in isopentanol, 293.03 K | 0.000371
in isopentanol, 298.17 K | 0.000472
in isopentanol, 302.63 K | 0.000622
in isopropanol, 277.91 K | 0.000116
in isopropanol, 283.21 K | 0.000142
in isopropanol, 288.05 K | 0.000168
in isopropanol, 293.19 K | 0.000211
in isopropanol, 298.13 K | 0.000283
in isopropanol, 303.13 K | 0.000365
in n-butanol, 278.11 K | 0.000262
in n-butanol, 283.53 K | 0.00032
in n-butanol, 288.37 K | 0.000424
in n-butanol, 293.03 K | 0.000525
in n-butanol, 297.73 K | 0.000662
in n-butanol, 303.71 K | 0.000962
in n-pentanol, 278.27 K | 0.000283
in n-pentanol, 283.33 K | 0.00034
in n-pentanol, 288.15 K | 0.000433
in n-pentanol, 293.23 K | 0.000564
in n-pentanol, 298.17 K | 0.000744
in n-pentanol, 303.15 K | 0.000992
in n-propanol, 277.85 K | 0.000226
in n-propanol, 283.17 K | 0.000256
in n-propanol, 288.13 K | 0.000332
in n-propanol, 293.17 K | 0.000414
in n-propanol, 297.97 K | 0.000544
in n-propanol, 302.81 K | 0.00079
